Measurements as given in patent US11324798B2, “Materials and methods for treatment of inflammation” (CYTOGEL PHARMA, LLC, priority 2010, dated 2022).
Several values for one entry are separate records, joined by “and”; a condition that tells them apart may be missing. Identical values can stand only once.

Assays:
[1] = test system: CGRP release from isolated rat tracheae; test: Electrical field stimulation (EFS)-evoked release of CGRP from isolated rat tracheae, radioimmunoassay; type: cell-based; conditions: for Release of CGRP into the incubation medium / Absolute release of CGRP: individual experiments 1-5; for Release of CGRP into the incubation medium, Mean / Absolute release of CGRP, Mean: mean of 5 experiments
Method: (§1) For the in vitro release experiments, a 10 mg/ml (14.62 mM; MW 684) stock solution of CYT-1010 was made in DMSO, which was further diluted with the oxygenated Krebs solution used in the organ bath: 5.5 μl of this CYT-1010 stock solution was added into 40 ml Krebs to make the highest applied 2 μM concentration of compound CYT-1010. Further dilutions to obtain the lower concentrations were prepared with Krebs solution.
(§2) The incubation media containing the respective CYT-1010 concentrations were administered in the stimulated and post-stimulated 8-min fractions.
(§3) Since even the highest, 2 μM, concentration of CYT-1010 solution contained negligible amount of DMSO, simple Krebs solution was used in the control experiments.
(§4) Rats were exsanguinated in deep anaesthesia (sodium thiobarbital, 50 mg/kg i.p.), then the whole trachea was removed and cleaned of fat and adhering connective tissues. Tracheae from two rats were placed into the same 1.8 ml organ bath to obtain sufficient amount of released peptide and perfused (1 ml/min) with pH-(7.2) controlled oxygenized Krebs solution for 60 minutes (equilibration period) at 37° C. temperature. After discontinuation of the flow, the solution was changed three times for eight minutes to produce pre-stimulated, stimulated, post-stimulated fractions.
(§5) Electrical field stimulation (40 V, 0.1 ms, 10 Hz for 120 s; 1200 pulses) was performed to elicit neurotransmitter release at the beginning of the second 8-minute period. Stimulation with 0.1 ms pulse width selectively activates very fast Na^+ channels, which are only present in the membrane of neural structures (Birmingham and Wilson, 1963; Coburn and Tomita 1973; Szolcsányi and Barthó, 1982); therefore, it excites nerve endings without influencing other excitable cells in the tracheae such as smooth muscle cells.
(§6) Krebs solution was used in the pre-stimulated fraction for determining the basal CGRP outflow. During the stimulated and post-stimulated fractions, the incubation medium contained the examined concentrations of CYT-1010 (10, 100, 500, 1000 and 2000 nM) in separate experiments, and only one concentration was applied to the same tracheae to avoid neuropeptide depletion. In each group, 5 experiments were performed in parallel in 5 perfusion systems to provide n=5 data per group (10 tracheae per group).
(§7) 60 male Wistar rats (250-300 g) altogether were divided into 6 experimental groups: Group 1: controls (n=10); Group 2: 10 nM CYT-1010 (n=10); Group 3: 100 nM CYT-1010 (n=10); Group 4: 500 nM CYT-1010 (n=10); Group 5: 1000 nM CYT-1010 (n=10); and Group 6: 2000 nM CYT-1010 (n=10). The total study was performed on three experimental days, two groups every occasion.
(§8) Calcitonin gene-related peptide (CGRP) and substance P (SP) concentrations were determined from 400-400 μl samples of organ fluid of the preparations by means of radioimmunoassay methods described in Nemeth et al., 1996, 1998, 1999, 2006; Helyes et al., 1997, 2001, 2006; Borzsei et al., 2008). Each of these publications is incorporated herein by reference in its entirety.
(§9) The released amount of the peptides CGRP and SP was calculated as fmol peptide per mg wet tissue (trachea). The absolute release in response to EFS in each experiment was calculated by adding peptide release in the second and third 8-min fractions and then taking off the basal release measured in the first (pre-stimulated) fraction. The detection limits of the RIA assays were 0.2 fmol/tube and 2 fmol/tube for CGRP and SP, respectively.

[2] = test system: SP release from isolated rat tracheae; test: Electrical field stimulation (EFS)-evoked release of SP from isolated rat tracheae, radioimmunoassay; type: cell-based; conditions: for SP Release into the incubation medium / Absolute release of SP: individual experiments 1-5; for SP Release into the incubation medium, Mean / Absolute release of SP, Mean: mean of 5 experiments
Method: as §1, §2, §3, §4, §5, §6, §7, §8, §9

[3] = 1 microM, during stimulation (stimulated fraction)
[4] = 2 microM, after stimulation (post-stimulated fraction)
[5] = 2 microM, before stimulation (pre-stimulated fraction)
[6] = 2 microM, during stimulation (stimulated fraction)
[7] = 10-2000 nM added to the second and third fractions

## NC(Cc1ccc(O)cc1)C(=O)NC1CCCCNC(=O)C(Cc2ccccc2)NC(=O)C(Cc2c[nH]c3ccccc23)NC1=O [CYT-1010, H-Tyr-c-[D-Lys-Trp-Phe]]
[1]; 1 microM, during stimulation (stimulated 8-min fraction)
  Release of CGRP into the incubation medium: 0.510 fmol/mg wet tissue and 0.433 fmol/mg wet tissue and 0.170 fmol/mg wet tissue (2×) and 0.161 fmol/mg wet tissue
[1]; [3]
  Release of CGRP into the incubation medium, Mean: 0.289 fmol/mg wet tissue
[1]; 1 microM
  Absolute release of CGRP: 0.371 fmol/mg wet tissue and 0.325 fmol/mg wet tissue and 0.083 fmol/mg wet tissue (2×) and 0.077 fmol/mg wet tissue
  Absolute release of CGRP, Mean: 0.188 fmol/mg wet tissue
[1]; 2 microM, after stimulation
  CGRP release, % increase above baseline: −4.59%
[1]; 2 microM, after stimulation (post-stimulated 8-min fraction)
  Release of CGRP into the incubation medium: 0.200 fmol/mg wet tissue and 0.161 fmol/mg wet tissue and 0.133 fmol/mg wet tissue and 0.018 fmol/mg wet tissue and 0.167 fmol/mg wet tissue
[1]; [4]
  Release of CGRP into the incubation medium, Mean: 0.136 fmol/mg wet tissue
[1]; 2 microM, before stimulation
  CGRP release, % increase above baseline: 0.00%
[1]; 2 microM, before stimulation (pre-stimulated 8-min fraction)
  Release of CGRP into the incubation medium: 0.102 fmol/mg wet tissue and 0.231 fmol/mg wet tissue and 0.097 fmol/mg wet tissue and 0.148 fmol/mg wet tissue and 0.134 fmol/mg wet tissue
[1]; [5]
  Release of CGRP into the incubation medium, Mean: 0.142 fmol/mg wet tissue
[1]; 2 microM, during stimulation
  CGRP release, % increase above baseline: 204.09%
[1]; 2 microM, during stimulation (stimulated 8-min fraction)
  Release of CGRP into the incubation medium: 0.198 fmol/mg wet tissue and 0.584 fmol/mg wet tissue and 0.388 fmol/mg wet tissue and 0.645 fmol/mg wet tissue and 0.353 fmol/mg wet tissue
[1]; [6]
  Release of CGRP into the incubation medium, Mean: 0.433 fmol/mg wet tissue
[1]; 2 microM
  Absolute release of CGRP: 0.192 fmol/mg wet tissue and 0.284 fmol/mg wet tissue and 0.326 fmol/mg wet tissue and 0.366 fmol/mg wet tissue and 0.253 fmol/mg wet tissue
  Absolute release of CGRP, Mean: 0.284 fmol/mg wet tissue
[1]; [7]
  Effect on stimulation-evoked CGRP release: significantly inhibited
[1]; 100 and 500 nM
  Effect on CGRP release in the third, post-stimulated fraction: significantly inhibited
[1]; sigmoidal concentration-response curve, non-linear least square fit, 10-2000 nM, read-out: EC50 for inhibition of electrically-evoked CGRP release
  EC50: 40.6 nM
[1]; two highest concentrations (1000 and 2000 nM)
  Effect on CGRP release in the third, post-stimulated fraction: abolished
[2]; 500 nM, 0.5 µM
  Inhibition of EFS-evoked SP outflow: 64.3% and 64%
[2]; 1000 nM (maximal inhibition), 1 µM
  Inhibition of EFS-evoked SP outflow: 71.8% and 72%
[2]; 1 microM, after stimulation
  SP release, % increase above baseline: 16.32%
  SP Release into the incubation medium, Mean: 1.694 fmol/mg wet tissue
[2]; 1 microM, after stimulation (post-stimulated fraction)
  SP Release into the incubation medium: 1.663 fmol/mg wet tissue and 1.966 fmol/mg wet tissue and 1.892 fmol/mg wet tissue and 1.551 fmol/mg wet tissue and 1.397 fmol/mg wet tissue
[2]; 1 microM, before stimulation
  SP release, % increase above baseline: 0.00%
  SP Release into the incubation medium, Mean: 1.456 fmol/mg wet tissue
[2]; 1 microM, before stimulation (pre-stimulated fraction)
  SP Release into the incubation medium: 1.398 fmol/mg wet tissue and 1.806 fmol/mg wet tissue and 1.860 fmol/mg wet tissue and 1.412 fmol/mg wet tissue and 0.805 fmol/mg wet tissue
[2]; 1 microM, during stimulation
  SP release, % increase above baseline: 13.32%
  SP Release into the incubation medium, Mean: 1.650 fmol/mg wet tissue
[2]; [3]
  SP Release into the incubation medium: 1.558 fmol/mg wet tissue and 1.948 fmol/mg wet tissue and 1.992 fmol/mg wet tissue and 1.422 fmol/mg wet tissue and 1.331 fmol/mg wet tissue
[2]; 1 microM
  Absolute release of SP: 0.425 fmol/mg wet tissue and 0.302 fmol/mg wet tissue and 0.164 fmol/mg wet tissue and 0.149 fmol/mg wet tissue and 1.118 fmol/mg wet tissue
  Absolute release of SP, Mean: 0.432 fmol/mg wet tissue
[2]; 2 microM, after stimulation
  SP release, % increase above baseline: 6.72%
  SP Release into the incubation medium, Mean: 1.922 fmol/mg wet tissue
[2]; [4]
  SP Release into the incubation medium: 2.348 fmol/mg wet tissue and 1.531 fmol/mg wet tissue and 2.246 fmol/mg wet tissue and 1.543 fmol/mg wet tissue and 1.944 fmol/mg wet tissue
[2]; 2 microM, before stimulation
  SP release, % increase above baseline: 0.00%
  SP Release into the incubation medium, Mean: 1.801 fmol/mg wet tissue
[2]; [5]
  SP Release into the incubation medium: 2.406 fmol/mg wet tissue and 1.582 fmol/mg wet tissue and 2.020 fmol/mg wet tissue and 1.132 fmol/mg wet tissue and 1.867 fmol/mg wet tissue
[2]; 2 microM, during stimulation
  SP release, % increase above baseline: 56.23%
  SP Release into the incubation medium, Mean: 2.814 fmol/mg wet tissue
[2]; [6]
  SP Release into the incubation medium: 3.130 fmol/mg wet tissue and 2.398 fmol/mg wet tissue and 2.334 fmol/mg wet tissue and 2.078 fmol/mg wet tissue and 4.132 fmol/mg wet tissue
[2]; 2 microM
  Absolute release of SP: 0.666 fmol/mg wet tissue and 0.765 fmol/mg wet tissue and 0.540 fmol/mg wet tissue and 1.357 fmol/mg wet tissue and 2.342 fmol/mg wet tissue
  Absolute release of SP, Mean: 1.134 fmol/mg wet tissue
[2]; [7]
  Effect on stimulation-evoked SP release: significantly inhibited
[2]; sigmoidal concentration-response curve, non-linear least square fit, 10-2000 nM, read-out: EC50 for inhibition of electrically-evoked SP release
  EC50: 34 nM
